Among the data in US9376418B2, “Substituted pyridine spleen tyrosine kinase (SYK) inhibitors” (Merck Sharp & Dohme Corp., priority 2012, dated 2016) are IC50 values, retold here.

The experiment has as its target T1, recombinant human GST-SYK (Homo sapiens, UniProt P43405).
T1 construct: purchased Carna Biosciences 08-176
Briefly: Homogeneous Time-Resolved Fluorescence (HTRF) assay for the recombinant human Syk enzyme. In kind it is biochemical. As to conditions: HTRF assay, recombinant human GST-SYK; IC50 given as class symbols; read-out: rhSYK Activity. The method in brief: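 GST-hSYK ([…]) was preincubated with inhibitor (0.1% DMSO final) for 10 minutes at room temperature in 15 mM Tris-HCl pH 7.5, 0.01% tween 20, 2 mM DTT. Biotinylated peptide (250 nM), 5 mM magnesium and 25 μM ATP started a 45-minute room-temperature reaction, read by time-resolved fluorescence.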
Consider `Cc1cc(Nc2nccc(C(F)(F)F)n2)cc(-c2ccc(N3CC[C@H]3C(N)=O)nc2)c1` [Example 12.9, (2S)-1-[5-(3-methyl-5-{[4-(trifluoromethyl)pyrimidin-2-yl]amino}phenyl)pyridin-2-yl]azetidine-2-carboxamide], for which the IC50 was less than 100 nM.
The result for `Cc1cc(Nc2nccc(C(F)(F)F)n2)cc(-c2ccc(CCC#N)nc2)c1` [Example 13.1, 3-[5-(3-Methyl-5-{[4-(trifluoromethyl)pyrimidin-2-yl]amino}phenyl)pyridin-2-yl]propanenitrile] reads less than 100 nM.
With `Cc1cc(Nc2nccc(C(F)(F)F)n2)cc(-c2ccc(CCC(=O)O)nc2)c1` [Example 13.2, 3-[5-(3-Methyl-5-{[4-(trifluoromethyl)pyrimidin-2-yl]amino}phenyl)pyridin-2-yl]propanoic acid], the IC50 is less than 100 nM.
Regarding `Cc1cc(Nc2nccc(C(F)(F)F)n2)cc(-c2ccc(CCC(N)=O)nc2)c1` [Example 13.3, 3-[5-(3-Methyl-5-{[4-(trifluoromethyl)pyrimidin-2-yl]amino}phenyl)pyridin-2-yl]propanamide], the IC50 was less than 100 nM.
`Cc1cc(Nc2nccc(C(F)(F)F)n2)cc(-c2ccc(CCc3nnn[nH]3)nc2)c1` [Example 13.4, N-(3-Methyl-5-{6-[2-(1H-tetrazol-5-yl)ethyl]pyridin-3-yl}phenyl)-4-(trifluoromethyl)pyrimidin-2-amine]: the IC50 was less than 100 nM.
Consider `Cc1cc(Nc2nccc(C(F)(F)F)n2)cc(-c2ccc(CCc3noc(=O)[nH]3)nc2)c1` [Example 13.5, 3-{2-[5-(3-Methyl-5-{[4-(trifluoromethyl)pyrimidin-2-yl]amino}phenyl)pyridin-2-yl]ethyl}-1,2,4-oxadiazol-5(4H)-one], for which the IC50 is less than 100 nM.
Turning to `Cc1cc(Nc2nccc(C(F)(F)F)n2)cc(-c2ccc(CN3CCCC3=O)nc2)c1` [Example 14.1, 1-{[5-(3-Methyl-5-{[4-(trifluoromethyl)pyrimidin-2-yl]amino}phenyl)pyridin-2-yl]methyl}pyrrolidin-2-one], the IC50 was less than 100 nM.
For the compound `COCCNc1cncc(-c2cc(C)cc(Nc3nccc(C(F)(F)F)n3)c2)c1` [Example 15.1, N-(3-{5-[(2-Methoxyethyl)amino]pyridin-3-yl}-5-methylphenyl)-4-(trifluoromethyl)pyrimidin-2-amine], the IC50 was less than 100 nM.
The result for `Cc1cc(Nc2nccc(C(F)(F)F)n2)cc(-c2cncc(NCC3CC3)c2)c1` [Example 15.11] reads less than 100 nM; that for `Cc1cc(Nc2nccc(C(F)(F)F)n2)cc(-c2cncc(NCCN3CCOCC3)c2)c1` [Example 15.16], less than 100 nM.
With `Cc1cc(Nc2nccc(C(F)(F)F)n2)cc(-c2cncc(NCC(=O)O)c2)c1` [Example 15.20, N-[5-(3-methyl-5-{[4-(trifluoromethyl)pyrimidin-2-yl]amino}phenyl)pyridin-3-yl]glycine], the IC50 is less than 100 nM.
Regarding `Cc1cc(Nc2nccc(C(F)(F)F)n2)cc(-c2cncc(NCc3ccc[nH]c3=O)c2)c1` [Example 15.21, 3-({[5-(3-methyl-5-{[4-(trifluoromethyl)pyrimidin-2-yl]amino}phenyl)pyridin-3-yl]amino}methyl)pyridin-2(1H)-one], the IC50 was less than 100 nM.
The figure for `Cc1cc(Nc2nccc(C(F)(F)F)n2)cc(-c2cncc(NCCO)c2)c1` [Example 15.22, 2-{[5-(3-Methyl-5-{[4-(trifluoromethyl)pyrimidin-2-yl]amino}phenyl)pyridin-3-yl]amino}ethanol] is less than 100 nM; for `CC(=O)N1CCN(c2cc(-c3cc(C)cc(Nc4nccc(C(F)(F)F)n4)c3)ccn2)CC1` [Example 15.23, 1-{4-[4-(3-Methyl-5-{[4-(trifluoromethyl)pyrimidin-2-yl]amino}phenyl)pyridin-2-yl]piperazin-1-yl}ethanone] it is less than 100 nM; for `Cc1cc(Nc2nccc(C(F)(F)F)n2)cc(-c2ccnc(N3CCN(C=O)CC3)c2)c1` [Example 15.24, 4-[4-(3-methyl-5-{[4-(trifluoromethyl)pyrimidin-2-yl]amino}phenyl)pyridin-2-yl]piperazine-1-carbaldehyde] it is less than 100 nM.
For the compound `Cc1cc(Nc2nccc(C(F)(F)F)n2)cc(-c2ccnc(N3CCC4(CCCC(=O)N4)CC3)c2)c1` [Example 15.25, 9-[4-(3-methyl-5-{[4-(trifluoromethyl)pyrimidin-2-yl]amino}phenyl)pyridin-2-yl]-1,9-diazaspiro[5.5]undecan-2-one], the IC50 is 100 to 1000 nM.
Turning to `Cc1cc(Nc2nccc(C(F)(F)F)n2)cc(-c2ccnc(N3CCCC4(CCCCO4)C3)c2)c1` (stereo not shown) [Example 15.26, N-{3-methyl-5-[2-(1-oxa-8-azaspiro[5.5]undec-8-yl)pyridin-4-yl]phenyl}-4-(trifluoromethyl)pyrimidin-2-amine], the IC50 is 1000 to 10000 nM.
As for `Cc1cc(Nc2nccc(C(F)(F)F)n2)cc(-c2ccnc(N3CCCC4(CCCNC4=O)C3)c2)c1` (stereo not shown) [Example 15.27, 8-[4-(3-methyl-5-{[4-(trifluoromethyl)pyrimidin-2-yl]amino}phenyl)pyridin-2-yl]-2,8-diazaspiro[5.5]undecan-1-one], the IC50 is less than 100 nM.
Take `Cc1cc(Nc2nccc(C(F)(F)F)n2)cc(-c2ccnc(N3CCCC4(CCCO4)C3)c2)c1` (stereo not shown) [Example 15.28, N-{3-methyl-5-[2-(1-oxa-7-azaspiro[4.5]dec-7-yl)pyridin-4-yl]phenyl}-4-(trifluoromethyl)pyrimidin-2-amine]: the IC50 was in the range of 100 to 1000 nM.
For the compound `Cc1cc(Nc2nccc(C(F)(F)F)n2)cc(-c2ccnc(N3CCCC4(CCNC4=O)C3)c2)c1` (stereo not shown) [Example 15.29, 7-[4-(3-methyl-5-{[4-(trifluoromethyl)pyrimidin-2-yl]amino}phenyl)pyridin-2-yl]-2,7-diazaspiro[4.5]decan-1-one], the IC50 was less than 100 nM.
`Cc1cc(Nc2nccc(C(F)(F)F)n2)cc(-c2ccnc(N3CCCC4(CCOC4=O)C3)c2)c1` (stereo not shown) [Example 15.30, 7-[4-(3-methyl-5-{[4-(trifluoromethyl)pyrimidin-2-yl]amino}phenyl)pyridin-2-yl]-2-oxa-7-azaspiro[4.5]decan-1-one]: the IC50 is less than 100 nM.
As for `Cc1cc(Nc2nccc(C(F)(F)F)n2)cc(-c2ccnc(N3CCC4(CCN(C)C4=O)CC3)c2)c1` [Example 15.31, 2-methyl-8-[4-(3-methyl-5-{[4-(trifluoromethyl)pyrimidin-2-yl]amino}phenyl)pyridin-2-yl]-2,8-diazaspiro[4.5]decan-1-one], the IC50 fell in the range of 100 to 1000 nM.
The figure for `Cc1cc(Nc2nccc(C(F)(F)F)n2)cc(-c2ccnc(NCC3CCC(=O)N3)c2)c1` (stereo not shown) [Example 15.32, 5-({[4-(3-methyl-5-{[4-(trifluoromethyl)pyrimidin-2-yl]amino}phenyl)pyridin-2-yl]amino}methyl)pyrrolidin-2-one] is less than 100 nM; for `Cc1cc(Nc2nccc(C(F)(F)F)n2)cc(-c2ccnc(NCCc3cnccn3)c2)c1` [Example 15.33, N-(3-methyl-5-{2-[(2-pyrazin-2-ylethyl)amino]pyridin-4-yl}phenyl)-4-(trifluoromethyl)pyrimidin-2-amine] it is 100 to 1000 nM.
Regarding `Cc1cc(Nc2nccc(C(F)(F)F)n2)cc(-c2ccnc(NC(C)c3ccccn3)c2)c1` (stereo not shown) [Example 15.34, N-(3-methyl-5-{2-[(1-pyridin-2-ylethyl)amino]pyridin-4-yl}phenyl)-4-(trifluoromethyl)pyrimidin-2-amine], the IC50 is 100 to 1000 nM.
